{
  "source": "paper PMC9135679",
  "about": "(Cell Reports, 2022)",
  "key": {"[1]": {"system": "PBMC from COVID-19, vaccinated, seronegative and pre-pandemic donors", "experiment": "IFN-γ ELISpot, ex vivo PBMC", "assay_type": "cell-based, human", "conditions": "of 10 convalescent COVID-19 donors analyzed"}, "[2]": {"system": "in vitro expanded T cell lines", "experiment": "IFN-γ ELISpot, T cells expanded in vitro with peptides or peptide pools", "assay_type": "cell-based, human", "conditions": "HCoV S pool-expanded lines from 3 convalescent COVID-19 donors; pool deconvolution; 1 μg/mL per peptide; positive by DFR2X"}, "[3]": {"system": "T cell clones with partially HLA-matched APCs (LG2, 9068, MN605)", "experiment": "T cell clone stimulation, IFN-γ ELISA", "assay_type": "cell-based, human", "conditions": "for dose-dependent reactivity relative to the SARS-CoV-2 peptide: 10-fold dilution series 1-10^−4 μg/mL, 24 hours"}, "[4]": {"target": "DQ5 (HLA-DQA1*01:01/DQB1*05:01) (Homo sapiens, UniProt P01909+P01920, A157S/A45G/A70V/C70R/D89V/E106S/E118A/E183D/E77G/F83G/G63E/H151Q/H199R/H252R/H253Q/I129T/I235V/I88M/INS77G/K197Q/L107V/L117V/L119Y/L178F/L71W/L74F/L85Q/L91A/L98M/M46L/N214S/P87R/Q116E/Q256R/Q57E/Q76K/R102G/R240Q/R75S/R78G/S102Y/S185I/S41F/S97I/T103A/T109R/T121G/T122I/T172A/T86R/V148I/V68A/V73E/Y34C/Y58G/Y62H)", "experiment": "Fluorescence polarization competition peptide binding assay, DQ5", "conditions": "Figure 5E, described in words"}},
  "data": [
    {"substance": "S986–1,006: SARS-CoV-2 spike candidate epitope, overlapping peptides 198/199", "values": [
      {"measurement": "donors showing ex vivo responses", "setting": "[1]", "value": 1, "unit": "donors"},
      {"measurement": "donors recognizing the pair of overlapping peptides", "setting": "[2]", "value": "single"}
    ]},
    {"substance": "SSSRSFFEDLLFDKVKL [HKU1-151]", "values": [
      {"measurement": "dose-dependent reactivity compared with S811–826", "setting": "[3]; clone #49, cyan group (DQ5, CoV2/HKU1)", "value": "similar"},
      {"measurement": "dose-dependent reactivity relative to the SARS-CoV-2 peptide", "setting": "[3]; clone #120, gold group (DP4, CoV2/HKU1)", "value": "approximately 10 fold weaker"},
      {"measurement": "binding of homolog peptides to DQ5 relative to S811–831", "setting": "[4]", "value": "binds more strongly than SARS-CoV-2"}
    ]},
    {"substance": "RVAGRSAIEDILFSKLV [229E-115]", "values": [
      {"measurement": "binding of homolog peptides to DQ5 relative to S811–831", "setting": "[4]", "value": "substantially weaker binding"}
    ]},
    {"substance": "SALEDLLFSKVVTSGLG [NL63-146]", "values": [
      {"measurement": "dose-dependent reactivity relative to the SARS-CoV-2 peptide", "setting": "[3]; […]", "value": "approximately 10 fold weaker"},
      {"measurement": "binding of homolog peptides to DQ5 relative to S811–831", "setting": "[4]", "value": "substantially weaker binding"}
    ]}
  ]
}
